The test system of one data set is HIV-1. More on the design: method as in PMID 16177980. The conditions noted are these: cited from earlier work.
The test system of data set [1] is HIV replication in H9 lymphocytes. Also on record: method as in PMID 31109016, PMID 10021911. The settings on record: cited from earlier work.
The test system of data set [2] is human immunodeficiency virus type-1 integrase. The conditions noted are these: cited from earlier work.
Data set [3] is described as follows: CytoTox-Glo cytotoxicity assay against MT4 cells. It is filed as cell-based. The conditions noted are these: human, 50% cytotoxic concentration, MT-4 cells, read-out: CC50 (μg/mL) MT4. As to the method: The cytotoxicity of the compound against MT4 cells was assessed using a CytoTox-Glo cytotoxicity assay (Promega, Madison, WI, USA). MT-4 cells were cultured in the presence of various concentrations of each test compound for 3 days, and the 50% cytotoxic concentration (CC50) causing a 50% reduction of cell viability was determined by following the manufacturer’s protocol.

Data set [4] relates to HIV-1NL4-3 Nanoluc-sec virus. Description: microbe, parasite or virus in culture. It is filed as cell-based. The settings on record: for EC50: Human immunodeficiency virus 1, NL43, MT4, 72 h, read-out: EC50 (μg/mL) NL4-3; for selective anti-HIV activity (class symbol printed in EC50 column): CC50/EC50 criterion. The text has this: MT4 cells (1 × 10^5 cells mL^−1) in 96 well plates were infected by HIV-1 NL4-3 Nanoluc-sec at a dose of 50 TCID50/well in the presence of each test compound at various concentrations. On Day 3 post-infection, supernatants were collected and assayed for luciferase activity using the Nano-Glo Luciferase Assay System (Promega, Madison, WI, USA). The antiviral potency was defined as the compound concentration that reduces the luciferase activity by 50% (EC50).

The test system of data set [5] is HIV replication in C8166 cells. More on the design: method as in PMID 15771893. The conditions noted are these: in vitro; cited from earlier work.
In data set [6] the test system is HIV. Also on record: method as in PMID 10757740. The settings on record: XTT-tetrazolium assay; cited from earlier work. On the technique in general: Tetrazolium assays rely on reduction of a dye to a coloured formazan, in cell work by metabolically active cells.
The subject of data set [7] is HIV. The conditions noted are these: cited from earlier work.

The source of these data is PMC6983056, “Carbazole Alkaloids from Clausena anisum-olens: Isolation, Characterization, and Anti-HIV Evaluation” (Molecules, 2019).

Values after ≈ are worked out from the molar mass of the structure shown. Some results are limits rather than exact numbers.

With `COc1ccc2c(c1)[nH]c1cc(OC)c(C=O)cc12` [3-formyl-2,7-dimethoxycarbazole], in the data set on HIV-1, the “anti-HIV-1 effects EC50” value is on record as 7.4 µg/mL and the “potential therapeutic index (PTI)” value was 8.0.

For the molecule `COc1cc2c(c3cnccc13)c1ccccc1n2C` [5-methoxy-7-methyl-7H-pyrido[4,3-c]carbazole], the “therapeutic index (TI)” value in data set [1] (H9 lymphocytes) is reported as 503. The “EC50, inhibition of HIV replication in H9 lymphocytes” value in data set [1] is recorded as 0.0054 µg/mL.

Regarding `Cc1cc2c(c3c1[nH]c1cc(Cl)c(O)cc13)C(=O)N(CCN(C)C)C2=O` [8-Chloro-2-[2-(dimethylamino)ethyl]-9-hydroxy-5-methylpyrrolo[3,4-c]carbazole-1,3(2H,6H)-dione], the strand-transfer inhibitory activity entry in data set [2] is “potent strand-transfer inhibitory activity”.

Turning to `Cc1cn([C@H]2C[C@H](N=[N+]=[N-])[C@@H](CO)O2)c(=O)[nH]c1=O` [AZT, azidothymidine], in data set [3], the CC50 at 3 days is over 0.1 µg/mL. In data set [4], the EC50 was 0.0055 ± 0.0018 µg/mL (≈ 0.0206 µM).

Consider `COC(=O)c1cc2c(cc1C)[nH]c1ccccc12` [Compound 1, 2-methyl-9H-carbazole-3-methyl carboxylate], for which the CC50 at 3 days in data set [3] is 17 ± 2.5 µg/mL (≈ 71 µM). Further, in data set [4] (CC50 MT4 / EC50 NL4-3), the “TI (CC50/EC50; SI in text)” value is 7.1. Moreover, the EC50 in data set [4] is 2.4 ± 0.53 µg/mL (≈ 10 µM).

For `COc1ccc(OC)c2c1[nH]c1cc(O)c(C)cc12` [Compound 2, 5,8-dimethoxy-3-methyl-9H-carbazol-2-ol], in data set [3], the CC50 at 3 days worked out at 15.2 ± 3.1 µg/mL (≈ 59.1 µM). In data set [4], the EC50 is 3.7 µg/mL (≈ 14.4 µM).

Turning to `COc1ccc2c(c1)[nH]c1ccc(C(=O)O)cc12` [Compound 3, clausine N], in data set [4], the “selective anti-HIV activity (class symbol printed in EC50 column)” value is “*- ^d (no selective anti-HIV activity (CC50/EC50 < 5))”.

Take `CC1(C)C=Cc2c(c(C=O)cc3c2[nH]c2c(O)cccc23)O1` [Compound 4, heptazolicine]: the “selective anti-HIV activity (class symbol printed in EC50 column)” value in data set [4] is recorded as “*- ^d (no selective anti-HIV activity (CC50/EC50 < 5))”.

Regarding `CC1(C)C=Cc2c(ccc3c2[nH]c2cc(O)c(C=O)cc23)O1` [Compound 5, clauszoline B], the “selective anti-HIV activity (class symbol printed in EC50 column)” value in data set [4] was “*- ^d (no selective anti-HIV activity (CC50/EC50 < 5))”.

In the case of `O=Cc1ccc2[nH]c3cc(O)ccc3c2c1` [Compound 7, 7-dihydroxy-9H-carbazole-3-carboxaldehyde], the CC50 at 3 days in data set [3] is over 25 µg/mL. Further, the EC50 in data set [4] was over 25 µg/mL.

Regarding `COc1ccc2[nH]c3c(O)cc(C=O)cc3c2c1` [Compound 8, clausine I], in data set [4], the “selective anti-HIV activity (class symbol printed in EC50 column)” value is “*- ^d (no selective anti-HIV activity (CC50/EC50 < 5))”.

Turning to `COc1cc2[nH]c3ccccc3c2cc1C=O` [O-methylmukonal], in the data set with HIV-1, the “anti-HIV-1 effects EC50” value is given as 2.7 µg/mL and the “potential therapeutic index (PTI)” value is listed as 56.7.

As for `COc1ccc2c(c1)[nH]c1cc(OC)c(C(=O)O)cc12` [clauszoline-J], in the data set on HIV-1, the “anti-HIV-1 effects EC50” value is reported as 8.2 µg/mL and the “potential therapeutic index (PTI)” value is listed as 1.6.

Consider `COc1ccc2[nH]c3cc(O)c(C)cc3c2c1CC=C(C)C` [glybomine B], for which the “IC50, inhibition of HIV replication in C8166 cells” value in data set [5] was 9.73 µg/mL.

On to `Cc1cc2c(cc1O)[nH]c1ccc3c(c12)C=CC(C)(C)O3` [glycoborinine], for which the “IC50, inhibition of HIV replication in C8166 cells” value in data set [5] was 4.47 µg/mL.

With `CC(C)=CCc1cc2c(cc1O)[nH]c1ccc(C)cc12` [siamenol], in the data set with HIV [6], the “HIV-inhibitory activity EC50” value is on record as 2.6 µg/mL and the maximum protection is reported as 50–60%.

As for `C[C@@]1(C(=O)O)[C@@H](O)CC[C@]2(C)c3cc4c(cc3CC[C@@H]12)[nH]c1ccccc14` [xiamycin], the anti-HIV activity entry in the data set on HIV [7] is “selective anti-HIV activity”.

Take clausine-O [Compound 6]: in data set [4], the “selective anti-HIV activity (class symbol printed in EC50 column)” value is on record as “*- ^d (no selective anti-HIV activity (CC50/EC50 < 5))”.
